{"source": "PubChem BioAssay AID1963985", "about": "(Molecular Pharmacology Branch, DTP, NCI, 2024);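 further: spheroids exposed to agents for seven days before readout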;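 on viability, T/C: percent of vehicle DMSO control viability so 100% = untreated growth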", "system": "252836-082-R-J2-PDC tumor spheroids, viability", "test": "Anticancer human tumor 252836-082-R-J2-PDC patient-derived head and neck squamous cell carcinoma cell line growth inhibition [PI3K]", "details": "spheroids with HUVEC and MSC; for IC50: curve of first compound; for viability, T/C: stronger effect = lower value", "how_it_was_run": "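We assembled tumor spheroids that included a stromal compartment of HUVEC and MSCs, then exposed them to targeted agents alone and together with PI3K pathway inhibitors. Concentration series descended by half-log from clinically achievable Cmax levels. Viability served as the endpoint.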", "key": {"[1]": {"details": "second compound 0.0316 µM, first compound 0.0316 µM"}, "[2]": {"details": "second compound 0.0316 µM, first compound 0.1 µM"}, "[3]": {"details": "second compound 0.1 µM, first compound 0.0316 µM"}, "[4]": {"details": "second compound 0.1 µM, first compound 0.1 µM"}, "[5]": {"details": "second compound 0.316 µM, first compound 0.0316 µM"}, "[6]": {"details": "second compound 0.316 µM, first compound 0.1 µM"}, "[7]": {"details": "second compound 1 µM, first compound 0.0316 µM"}, "[8]": {"details": "second compound 1 µM, first compound 0.1 µM"}}}
{"smiles": "Cn1ncnc1[C@H]1c2n[nH]c(=O)c3cc(F)cc(c23)N[C@@H]1c1ccc(F)cc1", "note": "+ CC(Nc1ccc2c(c1)OCCn1cc(N3C(=O)OCC3C(F)F)nc1-2)C(N)=O", "values": [{"measurement": "IC50", "setting": "second compound 0.00316 µM", "result": "> 100", "unit": "nM"}, {"measurement": "IC50", "setting": "second compound 0.01 µM", "result": "> 100", "unit": "nM"}, {"measurement": "IC50", "setting": "second compound 0.0316 µM", "result": "> 100", "unit": "nM"}, {"measurement": "IC50", "setting": "second compound 0.1 µM", "result": 46.7, "unit": "nM"}, {"measurement": "IC50", "setting": "second compound 0.316 µM", "result": 6.75, "unit": "nM"}, {"measurement": "IC50", "setting": "second compound 1 µM", "result": "< 0.316", "unit": "nM"}, {"measurement": "viability, T/C", "setting": "second compound 0.00316 µM, first compound 0.000316 µM", "result": 97.7, "unit": "%"}, {"measurement": "viability, T/C", "setting": "second compound 0.00316 µM, first compound 0.001 µM", "result": 86.2, "unit": "%"}, {"measurement": "viability, T/C", "setting": "second compound 0.00316 µM, first compound 0.00316 µM", "result": 78.7, "unit": "%"}, {"measurement": "viability, T/C", "setting": "second compound 0.00316 µM, first compound 0.01 µM", "result": 86.3, "unit": "%"}, {"measurement": "viability, T/C", "setting": "second compound 0.00316 µM, first compound 0.0316 µM", "result": 79.2, "unit": "%"}, {"measurement": "viability, T/C", "setting": "second compound 0.00316 µM, first compound 0.1 µM", "result": 57.5, "unit": "%"}, {"measurement": "viability, T/C", "setting": "second compound 0.01 µM, first compound 0.000316 µM", "result": 85.6, "unit": "%"}, {"measurement": "viability, T/C", "setting": "second compound 0.01 µM, first compound 0.001 µM", "result": 89.5, "unit": "%"}, {"measurement": "viability, T/C", "setting": "second compound 0.01 µM, first compound 0.00316 µM", "result": 89, "unit": "%"}, {"measurement": "viability, T/C", "setting": "second compound 0.01 µM, first compound 0.01 µM", "result": 84.5, "unit": "%"}, {"measurement": "viability, T/C", "setting": "second compound 0.01 µM, first compound 0.0316 µM", "result": 72.8, "unit": "%"}, {"measurement": "viability, T/C", "setting": "second compound 0.01 µM, first compound 0.1 µM", "result": 53, "unit": "%"}, {"measurement": "viability, T/C", "setting": "second compound 0.0316 µM, first compound 0.000316 µM", "result": 85.9, "unit": "%"}, {"measurement": "viability, T/C", "setting": "second compound 0.0316 µM, first compound 0.001 µM", "result": 93.6, "unit": "%"}, {"measurement": "viability, T/C", "setting": "second compound 0.0316 µM, first compound 0.00316 µM", "result": 71.2, "unit": "%"}, {"measurement": "viability, T/C", "setting": "second compound 0.0316 µM, first compound 0.01 µM", "result": 64.4, "unit": "%"}, {"measurement": "viability, T/C", "setting": "[1]", "result": 72.6, "unit": "%"}, {"measurement": "viability, T/C", "setting": "[2]", "result": 50.3, "unit": "%"}, {"measurement": "viability, T/C", "setting": "second compound 0.1 µM, first compound 0.000316 µM", "result": 67.9, "unit": "%"}, {"measurement": "viability, T/C", "setting": "second compound 0.1 µM, first compound 0.001 µM", "result": 71.8, "unit": "%"}, {"measurement": "viability, T/C", "setting": "second compound 0.1 µM, first compound 0.00316 µM", "result": 68.7, "unit": "%"}, {"measurement": "viability, T/C", "setting": "second compound 0.1 µM, first compound 0.01 µM", "result": 59.5, "unit": "%"}, {"measurement": "viability, T/C", "setting": "[3]", "result": 54.3, "unit": "%"}, {"measurement": "viability, T/C", "setting": "[4]", "result": 42.1, "unit": "%"}, {"measurement": "viability, T/C", "setting": "second compound 0.316 µM, first compound 0.000316 µM", "result": 52.8, "unit": "%"}, {"measurement": "viability, T/C", "setting": "second compound 0.316 µM, first compound 0.001 µM", "result": 58.1, "unit": "%"}, {"measurement": "viability, T/C", "setting": "second compound 0.316 µM, first compound 0.00316 µM", "result": 57.6, "unit": "%"}, {"measurement": "viability, T/C", "setting": "second compound 0.316 µM, first compound 0.01 µM", "result": 44, "unit": "%"}, {"measurement": "viability, T/C", "setting": "[5]", "result": 41, "unit": "%"}, {"measurement": "viability, T/C", "setting": "[6]", "result": 30.8, "unit": "%"}, {"measurement": "viability, T/C", "setting": "second compound 1 µM, first compound 0.000316 µM", "result": 50.6, "unit": "%"}, {"measurement": "viability, T/C", "setting": "second compound 1 µM, first compound 0.001 µM", "result": 45.4, "unit": "%"}, {"measurement": "viability, T/C", "setting": "second compound 1 µM, first compound 0.00316 µM", "result": 50.1, "unit": "%"}, {"measurement": "viability, T/C", "setting": "second compound 1 µM, first compound 0.01 µM", "result": 36, "unit": "%"}, {"measurement": "viability, T/C", "setting": "[7]", "result": 31.9, "unit": "%"}, {"measurement": "viability, T/C", "setting": "[8]", "result": 27.2, "unit": "%"}]}
{"smiles": "C[C@@H](NC(=O)c1ncnc(N)c1Cl)c1ncc(C(=O)Nc2cc(C(F)(F)F)c(Cl)cn2)s1", "note": "+ CC(Nc1ncnc2nc[nH]c12)c1cc2cccc(Cl)c2c(=O)n1-c1ccccc1", "values": [{"measurement": "IC50", "setting": "second compound 0.0316 µM", "result": "> 10000", "unit": "nM"}, {"measurement": "IC50", "setting": "second compound 0.1 µM", "result": "> 10000", "unit": "nM"}, {"measurement": "IC50", "setting": "second compound 0.316 µM", "result": "> 10000", "unit": "nM"}, {"measurement": "IC50", "setting": "second compound 1 µM", "result": "> 10000", "unit": "nM"}, {"measurement": "IC50", "setting": "second compound 3.16 µM", "result": "> 10000", "unit": "nM"}, {"measurement": "IC50", "setting": "second compound 10 µM", "result": "> 10000", "unit": "nM"}, {"measurement": "viability, T/C", "setting": "[1]", "result": 109, "unit": "%"}, {"measurement": "viability, T/C", "setting": "[2]", "result": 97.1, "unit": "%"}, {"measurement": "viability, T/C", "setting": "second compound 0.0316 µM, first compound 0.316 µM", "result": 100, "unit": "%"}, {"measurement": "viability, T/C", "setting": "second compound 0.0316 µM, first compound 1 µM", "result": 105, "unit": "%"}, {"measurement": "viability, T/C", "setting": "second compound 0.0316 µM, first compound 3.16 µM", "result": 103, "unit": "%"}, {"measurement": "viability, T/C", "setting": "second compound 0.0316 µM, first compound 10 µM", "result": 74, "unit": "%"}, {"measurement": "viability, T/C", "setting": "[3]", "result": 96.3, "unit": "%"}, {"measurement": "viability, T/C", "setting": "[4]", "result": 94.7, "unit": "%"}, {"measurement": "viability, T/C", "setting": "second compound 0.1 µM, first compound 0.316 µM", "result": 86.7, "unit": "%"}, {"measurement": "viability, T/C", "setting": "second compound 0.1 µM, first compound 1 µM", "result": 92.1, "unit": "%"}, {"measurement": "viability, T/C", "setting": "second compound 0.1 µM, first compound 3.16 µM", "result": 94.5, "unit": "%"}, {"measurement": "viability, T/C", "setting": "second compound 0.1 µM, first compound 10 µM", "result": 82.3, "unit": "%"}, {"measurement": "viability, T/C", "setting": "[5]", "result": 90.1, "unit": "%"}, {"measurement": "viability, T/C", "setting": "[6]", "result": 89.7, "unit": "%"}, {"measurement": "viability, T/C", "setting": "second compound 0.316 µM, first compound 0.316 µM", "result": 98.5, "unit": "%"}, {"measurement": "viability, T/C", "setting": "second compound 0.316 µM, first compound 1 µM", "result": 99.4, "unit": "%"}, {"measurement": "viability, T/C", "setting": "second compound 0.316 µM, first compound 3.16 µM", "result": 94.3, "unit": "%"}, {"measurement": "viability, T/C", "setting": "second compound 0.316 µM, first compound 10 µM", "result": 86.5, "unit": "%"}, {"measurement": "viability, T/C", "setting": "[7]", "result": 96.8, "unit": "%"}, {"measurement": "viability, T/C", "setting": "[8]", "result": 89.9, "unit": "%"}, {"measurement": "viability, T/C", "setting": "second compound 1 µM, first compound 0.316 µM", "result": 90.7, "unit": "%"}, {"measurement": "viability, T/C", "setting": "second compound 1 µM, first compound 1 µM", "result": 92.7, "unit": "%"}, {"measurement": "viability, T/C", "setting": "second compound 1 µM, first compound 3.16 µM", "result": 97.8, "unit": "%"}, {"measurement": "viability, T/C", "setting": "second compound 1 µM, first compound 10 µM", "result": 88.6, "unit": "%"}, {"measurement": "viability, T/C", "setting": "second compound 3.16 µM, first compound 0.0316 µM", "result": 73.5, "unit": "%"}, {"measurement": "viability, T/C", "setting": "second compound 3.16 µM, first compound 0.1 µM", "result": 84.5, "unit": "%"}, {"measurement": "viability, T/C", "setting": "second compound 3.16 µM, first compound 0.316 µM", "result": 89.5, "unit": "%"}, {"measurement": "viability, T/C", "setting": "second compound 3.16 µM, first compound 1 µM", "result": 93.1, "unit": "%"}, {"measurement": "viability, T/C", "setting": "second compound 3.16 µM, first compound 3.16 µM", "result": 72.7, "unit": "%"}, {"measurement": "viability, T/C", "setting": "second compound 3.16 µM, first compound 10 µM", "result": 70.1, "unit": "%"}, {"measurement": "viability, T/C", "setting": "second compound 10 µM, first compound 0.0316 µM", "result": 70.8, "unit": "%"}, {"measurement": "viability, T/C", "setting": "second compound 10 µM, first compound 0.1 µM", "result": 69, "unit": "%"}, {"measurement": "viability, T/C", "setting": "second compound 10 µM, first compound 0.316 µM", "result": 55.5, "unit": "%"}, {"measurement": "viability, T/C", "setting": "second compound 10 µM, first compound 1 µM", "result": 64.5, "unit": "%"}, {"measurement": "viability, T/C", "setting": "second compound 10 µM, first compound 3.16 µM", "result": 72.1, "unit": "%"}, {"measurement": "viability, T/C", "setting": "second compound 10 µM, first compound 10 µM", "result": 65.4, "unit": "%"}]}
